Laboratory results published in the Deep4Chem optical property database.
Values belong to the compound of their own block, whether it stands above or below them.

Assay: solvent given as SMILES

- absorption maximum (in C1CCOC1): 500 nm
- absorption maximum (in CC#N): 493 nm
- absorption maximum (in CCO): 504 nm
- absorption maximum (in CCOC(C)=O): 496 nm
- absorption maximum (in ClCCl): 502 nm
- absorption maximum (in c1ccccc1): 500 nm
Compound: CC1(C)CC(/C=C/c2ccc(N3CCOCCOCCOCCOCC3)cc2)=CC(=C(C#N)C#N)C1

Compound: Cc1ccc(C2=[N+]3C(=Cc4c(C)cc(C)n4[B-]3(F)F)c3ccccc32)[nH]1
- absorption maximum (in C1CCOC1): 607 nm
- absorption maximum (in CC#N): 600 nm
- absorption maximum (in CCCCCC): 607 nm
- absorption maximum (in CO): 602 nm
- absorption maximum (in Cc1ccccc1): 612 nm
- absorption maximum (in ClCCl): 608 nm

Compound: CCCCCCCC[n+]1ccc(-c2cc[n+](CCCCCCCC)cc2)cc1
- absorption maximum (in CC#N): 264 nm

- absorption maximum (in C1CCOC1): 379 nm
Compound: c1ccc(-c2cc(-c3ccccc3)cc(-c3ccc4c(c3)C3(c5cc(-c6cc(-c7ccccc7)cc(-c7ccccc7)c6)ccc5-4)c4ccccc4-c4c3c3c5ccccc5ccc3c3ccccc43)c2)cc1

- absorption maximum (in C1CCOC1): 282 nm
Compound: Cc1ccc(-c2ccc(-c3ccc(C)cc3)c(/C(=C(/c3ccccc3)c3cc(-c4ccc(C)cc4)ccc3-c3ccc(C)cc3)c3ccccc3)c2)cc1

- absorption maximum (in ClCCl): 361 nm
Compound: CCOC(=O)c1c(-c2cc3c(ccc4ccccc43)oc2=O)nn(-c2cccc(Cl)c2)c1C(=O)OCC

- absorption maximum (in CC#N): 339 nm
- absorption maximum (in CCCCOCCCC): 341 nm
- absorption maximum (in CO): 338 nm
Compound: CC(=O)Nc1ccc2ccc3cccc4ccc1c2c34

- absorption maximum (in CC1CCCCC1): 317 nm
- absorption maximum (in CC#N): 314 nm
- absorption maximum (in CO): 302 nm
Compound: COC(=O)C(NC(=O)OC(C)(C)C)c1ccc2oc(-c3ccc(F)cc3)nc2c1 (centres undefined)

- absorption maximum (in ClC(Cl)Cl): 393 nm
Compound: CCCCCCc1cc2c3cscc3c3cc(CCCCCC)sc3c2s1

Compound: COc1ccccc1C1=[N+]2C(=Nc3c(-c4ccccc4)cc(-c4ccccc4OC)n3[B-]2(F)F)C(c2ccccc2)=C1
- absorption maximum (in Cc1ccccc1): 640 nm

Compound: O=C(c1ccccc1)c1cc2ccc1CCc1ccc(cc1-c1ccc(N(c3ccccc3)c3ccccc3)cc1)CC2
- absorption maximum (in Cc1ccccc1): 311 nm

Compound: FC(F)(F)c1ccc(/C=C/c2ccc(-c3nnc(-c4ccc(-c5cc6ccccc6s5)cc4)o3)cc2)cc1
- absorption maximum (in CC#N): 333 nm
- absorption maximum (in CC(C)=O): 342 nm
- absorption maximum (in CCCCCCCC): 337 nm
- absorption maximum (in CCCCCCCCCCO): 340 nm
- absorption maximum (in CCCCCCCCO): 342 nm
- absorption maximum (in CCCCCO): 341 nm
- absorption maximum (in CCCO): 340 nm
- absorption maximum (in CN(C)C=O): 345 nm
- absorption maximum (in CO): 337 nm
- absorption maximum (in CS(C)=O): 342 nm

- absorption maximum (in CC#N): 330 nm
Compound: c1ccc(-c2pc3ccccc3s2)cc1 (centres undefined)

Compound: CCN(CC)c1ccc(-c2nc3c(c4c2-c2ccccc2CC4)-c2ccccc2CC3)cc1
- absorption maximum (in C1CCOC1): 357 nm
- absorption maximum (in CC#N): 360 nm
- absorption maximum (in CCCCCC): 355 nm
- absorption maximum (in CCOC(C)=O): 346 nm
- absorption maximum (in CO): 352 nm
- absorption maximum (in CS(C)=O): 361 nm
- absorption maximum (in Cc1ccccc1): 359 nm
- absorption maximum (in ClCCl): 357 nm

- absorption maximum (in ClC(Cl)Cl): 355 nm
Compound: O=Cc1ccc(Oc2ccc3c4c(cccc24)C(=O)N(CCO)C3=O)cc1

- absorption maximum (in C1CCCCC1): 340 nm
- absorption maximum (in CO): 340 nm
Compound: Clc1ccc(/C=C/c2nc3ccccc3s2)cc1

Compound: CC(C)(C)c1ccc(N2c3ccc(C(C)(C)C)cc3B3c4cc(C(C)(C)C)ccc4N(c4ccc(C(C)(C)C)cc4)c4cc(-n5c6ccc(C(C)(C)C)cc6c6cc(C(C)(C)C)ccc65)cc2c43)cc1
- absorption maximum (in Cc1ccccc1): 451 nm

- absorption maximum (in CO): 299 nm
Compound: COc1ccc(-c2nc(-c3ccccc3OC)[nH]c2-c2ccc(OC)cc2)cc1

- absorption maximum (in ClCCl): 652 nm
Compound: CC(C)[Si](C#Cc1c2cc3ccccc3cc2c(C#Cc2ccccc2)c2cc3ccccc3cc12)(C(C)C)C(C)C

Compound: COc1cc(/C=C/c2cc(OC)c(-c3nc(-c4ccccc4)c(-c4ccccc4)[nH]3)cc2OC)c(OC)cc1/C=C/c1cc(OC)c(-c2nc(-c3ccccc3)c(-c3ccccc3)[nH]2)cc1OC
- absorption maximum (in C1CCOC1): 444 nm
- absorption maximum (in CC#N): 441 nm
- absorption maximum (in Cc1ccccc1): 447 nm

- absorption maximum (in C1CCCCC1): 344 nm
- absorption maximum (in C1CCOC1): 348 nm
- absorption maximum (in C1COCCO1): 347 nm
- absorption maximum (in CC#N): 340 nm
- absorption maximum (in CC(C)(C)O): 350 nm
- absorption maximum (in CC(C)O): 347 nm
- absorption maximum (in CCCCCC): 342 nm
- absorption maximum (in CCCCO): 349 nm
- absorption maximum (in CCO): 346 nm
- absorption maximum (in CCOC(C)=O): 346 nm
- absorption maximum (in CN(C)C=O): 351 nm
- absorption maximum (in CO): 346 nm
- absorption maximum (in CS(C)=O): 352 nm
- absorption maximum (in ClC(Cl)Cl): 343 nm
- absorption maximum (in ClCCl): 341 nm
- absorption maximum (in O): 354 nm
- absorption maximum (in OCCO): 346 nm
Compound: CCc1ccc(/C=N/c2cc(C(C)C)c(O)cc2C)cc1

- absorption maximum (in O): 342 nm
Compound: Nc1ccc2ccc([O-])cc2c1

- absorption maximum (in ClCCl): 341 nm
Compound: COC(=O)C1=C(C(=O)OC)[Se](=O)[C@]23C1=C[C@H](c1ccccc12)c1ccccc13 (some centres undefined)

- absorption maximum (in C1CCCCC1): 289 nm
Compound: c1ccc(-c2ccc(-c3ccc4c(c3)CCO4)cc2)cc1

- absorption maximum (in CC1CCCCC1): 324 nm
- absorption maximum (in CC#N): 309 nm
- absorption maximum (in CO): 309 nm
Compound: C=CCOc1ccc(-c2nc3cc(C(NC(=O)OC(C)(C)C)C(=O)OC)ccc3o2)cc1 (centres undefined)

Compound: Cn1c(=O)c(/N=N/c2cc(S(=O)(=O)O)ccc2C(=O)O)c(O)c2ccccc21
- absorption maximum (in C1CCOC1): 408 nm
- absorption maximum (in CC(C)=O): 407 nm
- absorption maximum (in CCOC(C)=O): 407 nm
- absorption maximum (in CO): 406 nm
- absorption maximum (in CS(C)=O): 417 nm
- absorption maximum (in Cc1ccccc1): 421 nm
- absorption maximum (in ClCCl): 420 nm
- absorption maximum (in O): 421 nm

- absorption maximum (in ClCCl): 544 nm
Compound: CCC(C)[Si](C#Cc1c2nc3c4ccccc4c(=O)c4ccccc4c3nc2c(C#C[Si](C(C)CC)(C(C)CC)C(C)CC)c2nc3c4ccccc4c(=O)c4ccccc4c3nc12)(C(C)CC)C(C)CC (centres undefined)

Compound: Cc1cc(C#Cc2ccccc2)c2ccc3c(C#Cc4ccccc4)cc(C#Cc4ccccc4)c4ccc1c2c43
- absorption maximum (in CS(C)=O): 451 nm
- absorption maximum (in ClC(Cl)(Cl)Cl): 445 nm

Compound: CCCCCCCCCCCCC(CCCCCCCCCC)Cn1c2cc(/C=C/C=C/c3nc4ccccc4s3)c3cccc4c5cccc6c(/C=C/C=C/c7nc8ccccc8s7)cc1c(c65)c2c34 (centres undefined)
- absorption maximum (in C1CCCCC1): 530 nm
- absorption maximum (in CC#N): 528 nm
- absorption maximum (in Cc1ccccc1): 538 nm
- absorption maximum (in ClCCl): 538 nm

Compound: CCC1=C(C)C2=Cc3c4ccccc4c4n3[B-](C)(Oc3ccccc3-4)[N+]2=C1C (centres undefined)
- absorption maximum (in CC#N): 616 nm
- absorption maximum (in CCCCCC): 621 nm
- absorption maximum (in Cc1ccccc1): 625 nm
- absorption maximum (in ClCCl): 622 nm

- absorption maximum (in ClC(Cl)Cl): 695 nm
- absorption maximum (in ClCCl): 695 nm
Compound: COc1ccc2cc(C3=[N+]4C(=Nc5c(-c6ccccc6)cc(-c6ccc7cc(OC)ccc7c6)n5[B-]4(F)F)C(c4ccccc4)=C3Br)ccc2c1

Compound: CC[N+]1(CC)CN2C(=N1)C(C(=O)O)=Cc1c2ccc2ccccc12
- absorption maximum (in O): 406 nm

- absorption maximum (in C1COCCO1): 313 nm
- absorption maximum (in CC#N): 313 nm
- absorption maximum (in CO): 318 nm
- absorption maximum (in ClCCl): 311 nm
Compound: N#Cc1nc2c(OCc3ccccc3)nc(N)nc2n1Cc1ccccc1

- absorption maximum (in CCO): 382 nm
Compound: CN(C)c1cc2sc3cc(N(C)C)c(F)cc3c(=O)c2cc1F

Compound: O=c1oc2ccccc2cc1-c1cc2ccccc2o1
- absorption maximum (in CC#N): 366 nm
- absorption maximum (in CCOC(C)=O): 368 nm
- absorption maximum (in CS(C)=O): 371 nm
- absorption maximum (in Cc1ccccc1): 373 nm
- absorption maximum (in O): 365 nm

Compound: COc1ccc(C2=[N+]3C(=Nc4c(-c5ccccc5-c5ccc(C(C)(C)C)cc5)cc(-c5ccc(OC)cc5)n4[B-]3(F)F)c3c2c2cc(C(C)(C)C)ccc2c2ccccc32)cc1
- absorption maximum (in Cc1ccccc1): 701 nm

- absorption maximum (in CC#N): 337 nm
Compound: Cc1ccc(-c2ccc(/C=C/c3ccc(Cl)cc3)cn2)nc1

- absorption maximum (in ClCCl): 286 nm
Compound: c1ccc2c(c1)c1ccccc1c1ccccc21

- absorption maximum (in C1CCOC1): 330 nm
Compound: C(=C1c2ccccc2CCc2ccccc21)c1ccc(C=C2c3ccccc3CCc3ccccc32)cc1

- absorption maximum (in ClC(Cl)Cl): 381 nm
Compound: CC[Si](CC)(CC)c1cc2ccc3cccc4ccc(c1C(=O)NC(C)(C)C)c2c34

- absorption maximum (in C1CCCCC1): 346 nm
Compound: CCCC1(CCC)c2cc(-c3ccc(C(C)(C)C)cc3)ccc2-c2ccc(-c3ccc4c(c3)C(CCC)(CCC)c3cc(-c5ccc(C(C)(C)C)cc5)ccc3-4)cc21

- absorption maximum (in CCO): 475 nm
Compound: CCOC(=O)/C(=C1\C(=O)C(O)=C1C=C1N(C)c2ccccc2C1(C)C)[N+](=O)[O-]

Compound: CN(C)c1ccc(C#Cc2ccccc2)cc1
- absorption maximum (in C1CCCCC1): 316.9 nm
- absorption maximum (in C1CCOC1): 328.8 nm
- absorption maximum (in C1COCCO1): 326.61 nm
- absorption maximum (in CC1CCCO1): 327.1 nm
- absorption maximum (in CC(C)=O): 329.4 nm
- absorption maximum (in CC(C)CC(C)(C)C): 315 nm
- absorption maximum (in CC(C)O): 321.4 nm
- absorption maximum (in CCCCCCCCCCCCCCCC): 316.9 nm
- absorption maximum (in CCCCCCCCCCCCCCCCCl): 330 nm
- absorption maximum (in CO): 324 nm
- absorption maximum (in Cc1ccccc1): 326.3 nm

Compound: CN(C)c1ccc(/C=C2\CCCC2=O)cc1
- absorption maximum (in CC#N): 380 nm
- absorption maximum (in CC(C)=O): 379 nm
- absorption maximum (in CC(C)O): 390 nm
- absorption maximum (in CCCCCC): 357 nm
- absorption maximum (in CCCCO): 392 nm
- absorption maximum (in CCCO): 394 nm
- absorption maximum (in CCO): 390 nm
- absorption maximum (in CCOC(C)=O): 370 nm
- absorption maximum (in CCOCC): 365 nm
- absorption maximum (in CN(C)C=O): 383 nm
- absorption maximum (in CO): 391 nm
- absorption maximum (in CS(C)=O): 383 nm
- absorption maximum (in Cc1ccccc1): 373 nm
- absorption maximum (in ClC(Cl)(Cl)Cl): 370 nm
- absorption maximum (in ClC(Cl)Cl): 383 nm
- absorption maximum (in ClCCl): 383 nm
- absorption maximum (in S=C=S): 387 nm
- absorption maximum (in c1ccccc1): 380 nm
- absorption maximum (in c1ccncc1): 384 nm

- absorption maximum (in ClCCl): 257 nm
Compound: COc1ccc(-c2cc(-c3ccccc3)nn2C)cc1

Compound: c1ccc(-c2nc(-c3ccccc3)nc(-c3ccc(-n4c5ccccc5c5cc6c(cc54)C(c4ccccc4)(c4ccccc4)c4ccccc4-6)cc3)n2)cc1
- absorption maximum (in Cc1ccccc1): 366 nm

- absorption maximum (in ClCCl): 403 nm
Compound: CCCCCCOc1cc(C=O)c(OCCCCCC)cc1C=O

- absorption maximum (in ClCCl): 373 nm
Compound: C(=C\c1ncccn1)/c1ccc(-c2ccc(N(c3ccccc3)c3ccccc3)cc2)cc1
